Assay results published in patent US9603836B2, “Pyrrolidine-2, 5-dione derivatives, pharmaceutical compositions and methods for use as IDO1 inhibitors” (ITEOS THERAPEUTICS, priority 2014, dated 2017).
One block for each compound: values may come before it.

Columns and labels:
Kynurenine = assay: In-vivo inhibition of blood kynurenine levels in healthy mice; set-up: species or system mouse; conditions: two hours
Description: The compounds of the present invention reduce the amount of Kynurenine in healthy mouse blood.
Briefly, mice were treated with either a suspension of one of the compounds of the present invention in 0.5% hydroxypropyl methylcellulose (HPMC) K4M/0.25% Tween 20 at different doses, or with a vehicle control (0.5% HPMC K4M/0.25% Tween 20), by the oral route by gavage (dosing volume 5 mL/kg, 10 mice per group). After two hours, blood was harvested, plasma was prepared and the amount of Kynurenine present was determined by LC-MS-MS (HPLC column Unison UK-Phenyl, 75×4.6, 3 μm, flow rate 0.8 mL/min, 4 minutes gradient from water+0.2% acetic acid to methanol+0.1% formic acid, retention time 2.7 min; API4000™ MS-MS system from AB Sciex, ESI+ mode, parent ion 209.2, daughter ion 94.1).

PancO2 tumors = assay: In vivo efficacy in PancO2 pancreatic cancer syngeneic model; set-up: species or system C57/B16 mice; conditions: PancO2, 100 mg/kg BID oral
Description: In vivo efficacy studies of the Compounds of the present invention were performed on PancO2 syngeneic tumor model of C57/B16 mice implanted subcutaneously. Five millions PancO2 pancreas cancer cells were implanted subcutaneously to 7 weeks old C57/B16 mice (day 0). Animals were randomized based on tumor size when tumor average reached 60 mm^3 (between day 10 and 12) into different treatment cohorts. The Compound was administered orally twice per day (approximately at 9 am and 5 pm) starting the day of randomization. The Compound was suspended into Methocel vehicle and sonicated before oral administration to animals using gavage needles. Treatment was administered daily until the end of the study. All experimental animals were monitored for body weight changes weekly. Tumor volume was measured weekly using a caliper device and calculated with the following formula: Tumor volume=0.5×(length×width^2). Studies were terminated before tumor volumes reached 2000 mm. TGI (% tumor growth inhibition) was determined as
Treatment was administered daily until the end of the study. Tumor volume was measured weekly using a caliper device and calculated with the following formula: Tumor volume=0.5×(length×width^2). Mice were considered as dead when tumor size reached 400 mm^3. […] SEM refers to standard error of measurement.

hIDO1 [1] = target: T1, hIDO1 (Homo sapiens (Human), UniProt P14902); assay: Cellular assay for IDO activity determination: hIDO1 P815 cells; assay type: cell-based; conditions: P815 cells overexpressing hIDO1, 24 hours
T1 sequence (P14902 whole entry): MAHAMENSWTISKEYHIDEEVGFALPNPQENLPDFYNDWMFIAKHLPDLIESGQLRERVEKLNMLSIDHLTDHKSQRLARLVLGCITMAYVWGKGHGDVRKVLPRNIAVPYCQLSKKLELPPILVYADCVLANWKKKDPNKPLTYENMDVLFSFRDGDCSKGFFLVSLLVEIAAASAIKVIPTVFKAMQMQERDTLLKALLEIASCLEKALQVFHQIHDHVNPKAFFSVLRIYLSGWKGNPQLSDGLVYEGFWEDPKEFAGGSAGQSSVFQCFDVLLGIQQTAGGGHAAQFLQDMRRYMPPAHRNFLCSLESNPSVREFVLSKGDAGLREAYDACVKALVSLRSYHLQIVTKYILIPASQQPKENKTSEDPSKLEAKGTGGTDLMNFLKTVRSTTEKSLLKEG
Description: To determine IDO1 activity, the cells were incubated 24 hours at 37° C. at 5% CO2 in IMDM (Invitrogen) supplemented with 2% FBS and 2% penicillin/streptomycin in the presence of the compounds of the present invention, at different concentrations.
The plates were then centrifuged 5 min at 1000 rpm, and 100 μL of the supernatant were collected in a conical plate, 30 uL of TCA 30% were added and a further centrifugated at 3000×g for 10 minutes. 100 μL of the supernatant were collected in a flat bottomed plate and 100 μL of 2% (w/v) 4-(dimethylamino)-benzaldehyde in acetic acid and incubated for 5 min at room temperature. […] A standard curve was made with pure kynurenine.

hIDO1 [2] = target: T1, hIDO1; assay: Assay for IDO1 enzymatic activity determination; assay type: biochemical; conditions: human recombinant IDO1 enzyme, L-Trp 100 μM
Description: To measure enzymatic activity of human IDO1, the reaction mixture contained (final concentrations) potassium phosphate buffer (50 mM, pH 6.5), ascorbic acid (10 mM), methylene blue (5 μM) and human recombinant IDO1 enzyme (prepared as described in Rohrig et al. J Med Chem, 2012, 55, 5270-5290; final concentration 5 μg/mL) without or with the compounds of the present invention at the indicated concentrations (total volume 112.5 μL). The reaction was initiated by the addition of 37.5 μL of L-Trp (final concentration 100 μM) at room temperature. The reaction was conducted at room temperature during 15 minutes and stopped by the addition of 30 μL of 30% (w/v) trichloroacetic acid.
To convert N-formylkynurenine into kynurenine, the reaction mixture was incubated at 65° C. for 30 min. Then 120 μL of 2.5% (w/v) 4-(dimethylamino)-benzaldehyde in acetic acid were added and the mixture incubated for 5 min at room temperature. Kynurenine concentrations were determined by measuring the absorbance at 480 nm. A standard curve was made with pure kynurenine. The IDO1 activity was measured as described above using ten serial concentrations of the compounds of the present invention. Data were fitted using the Prism software (GraphPad Software, Inc.).

hIDO1 [3] = target: T1, hIDO1; assay: Cellular assay for IDO1 activity determination: HeLa cells; assay type: cell-based; conditions: HeLa cells stimulated with IFNγ
Description: The assay was performed in 96-well flat bottom plates seeded with the human cervical cancer HeLa cell line with stimulation with IFN.
To adhere HeLa cells (concentration of 5×10^3 cells/well) were incubated overnight at 37° C. at 5% CO2 in EMEM (Lonza) supplemented with 10% FBS, 2% penicillin/streptomycin and 2 mM Ultraglutamin, in a final volume of 200 μL.
To stimulate the expression of IDO1, cells were then incubated two days at 37° C. at 5% CO2 in EMEM (Lonza) supplemented with 2% FBS, 2% penicillin/streptomycin and 2 mM Ultraglutamine and 100 ng/mL IFNγ (R&D).
To determine IDO1 activity, medium was removed then the cells were incubated one day at 37° C. at 5% CO2 in EMEM (Lonza) supplemented with 2% FBS and 2% penicillin/streptomycin in the presence of the compounds of the present invention, at different concentrations. Then 100 μL of the supernatant were collected in a conical plate, 30 uL of TCA 30% were added and a centrifugation was made at 3000×g for 10 minutes. 100 μL of the supernatant were collected in a flat bottom plate and 100 μL of 2% (w/v) 4-(dimethylamino)-benzaldehyde in acetic acid and incubated for 5 min at room temperature. […] A standard curve was made with pure kynurenine.

SMILES: O=C1C[C@H](c2c[nH]c3ccc(F)cc23)C(=O)N1 [Compound 2, (−)-(R)-3-(5-fluoro-1H-indol-3-yl)pyrrolidine-2,5-dione]
Kynurenine concentration in plasma (average ± standard error of the mean) (Kynurenine; 10 mg/kg oral): 122 ± 3.5 ng/mL | inhibition of circulating Kynurenine (Kynurenine; 10 mg/kg oral): 39% | Kynurenine concentration in plasma (average ± standard error of the mean) (Kynurenine; 30 mg/kg oral): 91.0 ± 4.4 ng/mL | inhibition of circulating Kynurenine (Kynurenine; 30 mg/kg oral): 55% | Kynurenine concentration in plasma (average ± standard error of the mean) (Kynurenine; 100 mg/kg oral): 64.0 ± 3.8 ng/mL | inhibition of circulating Kynurenine (Kynurenine; 100 mg/kg oral): 68% | Mean tumor volume +/− SEM on day 55 (PancO2 tumors): 586.6 +/− 48.4 mm^3 | TGI +/− SEM (Tumor growth inhibition) (PancO2 tumors; day 55): 16.8% +/− 8.2

SMILES: O=C1CC(c2c[nH]c3ccccc23)C(=O)N1 (stereo not drawn) [Compound 3, 3-(1H-indol-3-yl)pyrrolidine-2,5-dione]
IC50 (hIDO1 [1]): 920 nM | IC50 (hIDO1 [2]): 3000 nM

SMILES: O=C1C[C@H](c2c[nH]c3ccccc23)C(=O)N1 [Compound 4, (−)-(R)-3-(1H-indol-3-yl)pyrrolidine-2,5-dione]
IC50 (hIDO1 [1]): 240 nM | IC50 (hIDO1 [2]): 1800 nM

SMILES: O=C1C[C@@H](c2c[nH]c3ccccc23)C(=O)N1 [Compound 4a, (+)-(S)-3-(1H-indol-3-yl)pyrrolidine-2,5-dione]
IC50 (hIDO1 [1]): 3300 nM | IC50 (hIDO1 [2]): > 50000 nM

SMILES: O=C1CC(c2c[nH]c3cc(Br)c(F)cc23)C(=O)N1 (stereo not drawn) [Compound 9, 3-(6-bromo-5-fluoro-1H-indol-3-yl)pyrrolidine-2,5-dione]
IC50 (hIDO1 [3]): 7000 nM | IC50 (hIDO1 [2]): 290 nM

SMILES: O=C1C[C@H](c2c[nH]c3cc(Br)c(F)cc23)C(=O)N1 [Compound 10, (R)-3-(6-bromo-5-fluoro-1H-indol-3-yl)pyrrolidine-2,5-dione]
IC50 (hIDO1 [2]): 620 nM

SMILES: O=C1C[C@@H](c2c[nH]c3cc(Br)c(F)cc23)C(=O)N1 [Compound 10a, (S)-3-(6-bromo-5-fluoro-1H-indol-3-yl)pyrrolidine-2,5-dione]
IC50 (hIDO1 [2]): 8000 nM

SMILES: O=C1CC(c2c[nH]c3cc(F)c(F)cc23)C(=O)N1 (stereo not drawn) [Compound 15, 3-(5,6-difluoro-1H-indol-3-yl)pyrrolidine-2,5-dione]
IC50 (hIDO1 [1]): 260 nM | IC50 (hIDO1 [2]): 1800 nM

SMILES: Cc1cc2[nH]cc(C3CC(=O)NC3=O)c2cc1F (stereo not drawn) [Compound 16, 3-(5-fluoro-6-methyl-1H-indol-3-yl)pyrrolidine-2,5-dione]
IC50 (hIDO1 [2]): 46000 nM

SMILES: O=C1CC(c2c[nH]c3cc(F)ccc23)C(=O)N1 (stereo not drawn) [Compound 17, 3-(6-fluoro-1H-indol-3-yl)pyrrolidine-2,5-dione]
IC50 (hIDO1 [2]): 3400 nM

SMILES: O=C1CC(c2c[nH]c3cc(Br)ccc23)C(=O)N1 (stereo not drawn) [Compound 19, 3-(6-bromo-1H-indol-3-yl)pyrrolidine-2,5-dione]
IC50 (hIDO1 [2]): 420 nM

SMILES: N#Cc1ccc2c(C3CC(=O)NC3=O)c[nH]c2c1 (stereo not drawn) [Compound 22, 3-(2,5-dioxopyrrolidin-3-yl)-1H-indole-6-carbonitrile]
IC50 (hIDO1 [2]): 1700 nM

SMILES: O=C1CC(c2cccc3ccccc23)C(=O)N1 (stereo not drawn) [Compound 23, 3-(naphthalen-1-yl)pyrrolidine-2,5-dione]
IC50 (hIDO1 [2]): 18000 nM

SMILES: O=C1CC(c2cccc3cc(F)ccc23)C(=O)N1 (stereo not drawn) [Compound 24, 3-(6-fluoronaphthalen-1-yl)pyrrolidine-2,5-dione]
IC50 (hIDO1 [2]): 1700 nM

SMILES: O=C1CC(c2cccc3ccc(F)cc23)C(=O)N1 (stereo not drawn) [Compound 25, 3-(7-fluoronaphthalen-1-yl)pyrrolidine-2,5-dione]
IC50 (hIDO1 [2]): 4600 nM

Continued, values first:

IC50 (hIDO1 [1]): 590 nM | IC50 (hIDO1 [2]): 2100 nM
SMILES: O=C1CC(c2c[nH]c3ccc(Cl)cc23)C(=O)N1 (stereo not drawn) [Compound 5, 3-(5-chloro-1H-indol-3-yl)pyrrolidine-2,5-dione]

IC50 (hIDO1 [3]): 3400 nM | IC50 (hIDO1 [2]): 2200 nM
SMILES: O=C1C[C@H](c2c[nH]c3ccc(Cl)cc23)C(=O)N1 [Compound 6, (−)-(R)-3-(5-chloro-1H-indol-3-yl)pyrrolidine-2,5-dione]

IC50 (hIDO1 [2]): > 50000 nM
SMILES: O=C1C[C@@H](c2c[nH]c3ccc(Cl)cc23)C(=O)N1 [Compound 6a, (+)-(S)-3-(5-chloro-1H-indol-3-yl)pyrrolidine-2,5-dione]

IC50 (hIDO1 [2]): 490 nM
SMILES: O=C1CC(c2c[nH]c3cc(Cl)c(F)cc23)C(=O)N1 (stereo not drawn) [Compound 7, 3-(6-chloro-5-fluoro-1H-indol-3-yl)pyrrolidine-2,5-dione]

IC50 (hIDO1 [3]): 3600 nM
SMILES: O=C1C[C@H](c2c[nH]c3cc(Cl)c(F)cc23)C(=O)N1 [Compound 8, (R)-3-(6-chloro-5-fluoro-1H-indol-3-yl)pyrrolidine-2,5-dione]

IC50 (hIDO1 [3]): 5900 nM | IC50 (hIDO1 [2]): 370 nM
SMILES: O=C1CC(c2c[nH]c3ccc(Br)cc23)C(=O)N1 (stereo not drawn) [Compound 11, 3-(5-bromo-1H-indol-3-yl)pyrrolidine-2,5-dione]

IC50 (hIDO1 [2]): 53000 nM
SMILES: Cc1ccc2[nH]cc(C3CC(=O)NC3=O)c2c1 (stereo not drawn) [Compound 12, 3-(5-methyl-1H-indol-3-yl)pyrrolidine-2,5-dione]

IC50 (hIDO1 [2]): 53000 nM
SMILES: COc1ccc2[nH]cc(C3CC(=O)NC3=O)c2c1 (stereo not drawn) [Compound 13, 3-(5-methoxy-1H-indol-3-yl)pyrrolidine-2,5-dione]

IC50 (hIDO1 [2]): 12000 nM
SMILES: N#Cc1ccc2[nH]cc(C3CC(=O)NC3=O)c2c1 (stereo not drawn) [Compound 14, 3-(2,5-dioxopyrrolidin-3-yl)-1H-indole-5-carbonitrile]

IC50 (hIDO1 [1]): 500 nM | IC50 (hIDO1 [2]): 2100 nM
SMILES: O=C1CC(c2c[nH]c3cc(Cl)ccc23)C(=O)N1 (stereo not drawn) [Compound 18, 3-(6-chloro-1H-indol-3-yl)pyrrolidine-2,5-dione]

IC50 (hIDO1 [2]): 54000 nM
SMILES: Cc1ccc2c(C3CC(=O)NC3=O)c[nH]c2c1 (stereo not drawn) [Compound 20, 3-(6-methyl-1H-indol-3-yl)pyrrolidine-2,5-dione]
